In PubChem BioAssay (NCI):
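Step 1: Grow cells in 96-well plates. Step 2: Expose to compound for 48 hours at 5 concentrations. Step 3: Interpolate endpoints linearly; if unreached, use highest concentration. At the GI50, growth is halved. TGI: total growth inhibition.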

How the values were obtained:
Assay in all cases: growth of human tumour cells (NCI), 48 h
UO-31 renal = tested on: UO-31 renal
IGROV1 ovarian = tested on: IGROV1 ovarian
K-562 leukemia = tested on: K-562 leukemia
HOP-92 NSCLC = tested on: HOP-92 NSCLC
BT-549 breast = tested on: BT-549 breast
OVCAR-8 ovarian = tested on: OVCAR-8 ovarian
HCC-2998 colon = tested on: HCC-2998 colon
SW-620 colon = tested on: SW-620 colon
ACHN renal = tested on: ACHN renal
SNB-19 CNS = tested on: SNB-19 CNS
HL-60(TB) leukemia = tested on: HL-60(TB) leukemia
SF-268 CNS = tested on: SF-268 CNS
MDA-MB-435 = tested on: MDA-MB-435
MOLT-4 leukemia = tested on: MOLT-4 leukemia
A498 renal = tested on: A498 renal
SF-295 CNS = tested on: SF-295 CNS
HS 578T breast = tested on: HS 578T breast
HCT-116 colon = tested on: HCT-116 colon
SF-539 CNS = tested on: SF-539 CNS
UACC-257 melanoma = tested on: UACC-257 melanoma
PC-3 prostate = tested on: PC-3 prostate
MCF7 breast = tested on: MCF7 breast
786-0 renal = tested on: 786-0 renal
HCT-15 colon = tested on: HCT-15 colon
SNB-75 CNS = tested on: SNB-75 CNS
SN12C renal = tested on: SN12C renal
NCI-H522 lung = tested on: NCI-H522 lung
NCI/ADR-RES ovarian = tested on: NCI/ADR-RES ovarian
COLO 205 colon = tested on: COLO 205 colon
M14 melanoma = tested on: M14 melanoma
MDA-MB-231 breast = tested on: MDA-MB-231 breast
HT29 colon = tested on: HT29 colon
OVCAR-4 ovarian = tested on: OVCAR-4 ovarian
OVCAR-5 ovarian = tested on: OVCAR-5 ovarian
U251 CNS = tested on: U251 CNS
OVCAR-3 ovarian = tested on: OVCAR-3 ovarian
NCI-H460 lung = tested on: NCI-H460 lung
T-47D breast = tested on: T-47D breast
SR leukemia = tested on: SR leukemia
A549 NSCLC = tested on: A549 NSCLC
HOP-62 NSCLC = tested on: HOP-62 NSCLC
CAKI-1 renal = tested on: CAKI-1 renal
LOX IMVI melanoma = tested on: LOX IMVI melanoma
NCI-H23 lung = tested on: NCI-H23 lung
CCRF-CEM leukemia = tested on: CCRF-CEM leukemia
SK-MEL-28 melanoma = tested on: SK-MEL-28 melanoma
SK-MEL-2 melanoma = tested on: SK-MEL-2 melanoma
KM12 colon = tested on: KM12 colon
DU-145 prostate = tested on: DU-145 prostate
MALME-3M melanoma = tested on: MALME-3M melanoma
NCI-H226 lung = tested on: NCI-H226 lung
UACC-62 melanoma = tested on: UACC-62 melanoma
TK-10 renal = tested on: TK-10 renal
SK-MEL-5 melanoma = tested on: SK-MEL-5 melanoma
RPMI-8226 leukemia = tested on: RPMI-8226 leukemia
RXF 393 renal = tested on: RXF 393 renal
SK-OV-3 ovarian = tested on: SK-OV-3 ovarian

For `COc1cc(OC)c(/C=C/c2cc[n+](C)c3ccccc23)c(OC)c1`, the GI50 (UO-31 renal) was 17.3 µM, the TGI (UO-31 renal) was greater than 100 µM and the GI50 (IGROV1 ovarian) was 3.62 µM. For the same compound, the TGI (IGROV1 ovarian) was 25.9 µM, the GI50 (K-562 leukemia) was 1 µM and the TGI (K-562 leukemia) was greater than 100 µM. For the same compound, the GI50 (HOP-92 NSCLC) was 1.42 µM, the TGI (HOP-92 NSCLC) was 4.7 µM and the GI50 (BT-549 breast) was 1.79 µM. The TGI (BT-549 breast) was 13.6 µM, the GI50 (OVCAR-8 ovarian) was 1.62 µM and the TGI (OVCAR-8 ovarian) was 10.2 µM. The GI50 (HCC-2998 colon) was 2.46 µM, the TGI (HCC-2998 colon) was 13.9 µM and the GI50 (SW-620 colon) was 2.56 µM. For the same compound, the TGI (SW-620 colon) was 16.9 µM, the GI50 (ACHN renal) was 13.5 µM and the TGI (ACHN renal) was greater than 100 µM. It also gave a GI50 (SNB-19 CNS) of 0.795 µM, a TGI (SNB-19 CNS) of 15.4 µM and a GI50 (HL-60(TB) leukemia) of 1.33 µM. It also gave a TGI (HL-60(TB) leukemia) of 8.58 µM, a GI50 (SF-268 CNS) of 0.691 µM and a TGI (SF-268 CNS) of 12.8 µM. The GI50 (MDA-MB-435) was 1.83 µM, the TGI (MDA-MB-435) was 7.37 µM and the GI50 (MOLT-4 leukemia) was 3.19 µM. For the same compound, the TGI (MOLT-4 leukemia) was 33.9 µM, the GI50 (A498 renal) was 1.24 µM and the TGI (A498 renal) was 6.04 µM. It also gave a GI50 (SF-295 CNS) of 0.702 µM, a TGI (SF-295 CNS) of 6.48 µM and a GI50 (HS 578T breast) of 1.48 µM. It also gave a TGI (HS 578T breast) of 12.4 µM, a GI50 (HCT-116 colon) of 1.27 µM and a TGI (HCT-116 colon) of 33.7 µM. For the same compound, the GI50 (SF-539 CNS) was 2.14 µM, the TGI (SF-539 CNS) was 10.9 µM and the GI50 (UACC-257 melanoma) was 1.86 µM. The TGI (UACC-257 melanoma) was 5.98 µM, the GI50 (PC-3 prostate) was 1.68 µM and the TGI (PC-3 prostate) was 12.6 µM. It also gave a GI50 (MCF7 breast) of 2.7 µM, a TGI (MCF7 breast) greater than 100 µM and a GI50 (786-0 renal) of 4.4 µM. It also gave a TGI (786-0 renal) of 22.3 µM, a GI50 (HCT-15 colon) of 23.3 µM and a TGI (HCT-15 colon) greater than 100 µM. For the same compound, the GI50 (SNB-75 CNS) was 0.932 µM, the TGI (SNB-75 CNS) was 11.2 µM and the GI50 (SN12C renal) was 1.05 µM. For the same compound, the TGI (SN12C renal) was 13 µM, the GI50 (NCI-H522 lung) was 1.61 µM and the TGI (NCI-H522 lung) was 6.34 µM. The GI50 (NCI/ADR-RES ovarian) was greater than 100 µM, the TGI (NCI/ADR-RES ovarian) was greater than 100 µM and the GI50 (COLO 205 colon) was 1.23 µM. For the same compound, the TGI (COLO 205 colon) was 2.9 µM, the GI50 (M14 melanoma) was 2.88 µM and the TGI (M14 melanoma) was 15.8 µM. For the same compound, the GI50 (MDA-MB-231 breast) was 2.77 µM, the TGI (MDA-MB-231 breast) was 12.8 µM and the GI50 (HT29 colon) was 1.94 µM. The TGI (HT29 colon) was 7.28 µM, the GI50 (OVCAR-4 ovarian) was 2.51 µM and the TGI (OVCAR-4 ovarian) was 23 µM. It also gave a GI50 (OVCAR-5 ovarian) of 3.66 µM, a TGI (OVCAR-5 ovarian) of 38.7 µM and a GI50 (U251 CNS) of 0.536 µM. The TGI (U251 CNS) was 11.7 µM, the GI50 (OVCAR-3 ovarian) was 1.68 µM and the TGI (OVCAR-3 ovarian) was 7.35 µM. The GI50 (NCI-H460 lung) was 0.98 µM, the TGI (NCI-H460 lung) was 5.85 µM and the GI50 (T-47D breast) was 1.72 µM. For the same compound, the TGI (T-47D breast) was 33.7 µM, the GI50 (SR leukemia) was 1.92 µM and the TGI (SR leukemia) was greater than 100 µM. For the same compound, the GI50 (A549 NSCLC) was 1.8 µM, the TGI (A549 NSCLC) was 54.6 µM and the GI50 (HOP-62 NSCLC) was 3.17 µM. For the same compound, the TGI (HOP-62 NSCLC) was 20.8 µM, the GI50 (CAKI-1 renal) was 18.3 µM and the TGI (CAKI-1 renal) was greater than 100 µM. The GI50 (LOX IMVI melanoma) was 1.29 µM, the TGI (LOX IMVI melanoma) was 3.15 µM and the GI50 (NCI-H23 lung) was 1.74 µM. The TGI (NCI-H23 lung) was 17.3 µM, the GI50 (CCRF-CEM leukemia) was 2.71 µM and the TGI (CCRF-CEM leukemia) was greater than 100 µM. The GI50 (SK-MEL-28 melanoma) was 2.3 µM, the TGI (SK-MEL-28 melanoma) was 9.77 µM and the GI50 (SK-MEL-2 melanoma) was 2.66 µM. The TGI (SK-MEL-2 melanoma) was 6.32 µM, the GI50 (KM12 colon) was 1.41 µM and the TGI (KM12 colon) was 3.95 µM. It also gave a GI50 (DU-145 prostate) of 2.47 µM, a TGI (DU-145 prostate) of 15.5 µM and a GI50 (MALME-3M melanoma) of 1.87 µM. The TGI (MALME-3M melanoma) was 8.04 µM, the GI50 (NCI-H226 lung) was 1.99 µM and the TGI (NCI-H226 lung) was 17.3 µM. It also gave a GI50 (UACC-62 melanoma) of 1.58 µM, a TGI (UACC-62 melanoma) of 5.66 µM and a GI50 (TK-10 renal) of 3.54 µM. For the same compound, the TGI (TK-10 renal) was 18.1 µM, the GI50 (SK-MEL-5 melanoma) was 0.928 µM and the TGI (SK-MEL-5 melanoma) was 2.39 µM. The GI50 (RPMI-8226 leukemia) was 0.648 µM, the TGI (RPMI-8226 leukemia) was 11.6 µM and the GI50 (RXF 393 renal) was 2.66 µM. The TGI (RXF 393 renal) was 19.2 µM, the GI50 (SK-OV-3 ovarian) was 3.32 µM and the TGI (SK-OV-3 ovarian) was 17.5 µM.
